Marks after values point to notes of the source that are not given here.
Key:
PBMCs [1] = test: Cytokinesis block micronucleus cytome (CBMN-cyt) assay; format: cell-based, human; parameters: Total MNi (mean ± SD) / BN cells with MNi (mean ± SD) / NBUDs (mean ± SD) / NPBs (mean ± SD): unit not given here
Description: DNA damage events were scored specifically in once-divided binucleated (BN) cells and included micronuclei (MNi), a biomarker of chromosome breakage and/or whole chromosome loss, nucleoplasmic bridges (NPBs), a biomarker of DNA misrepair and/or telomere end-fusions, and nuclear buds (NBUDs), a biomarker of elimination of amplified DNA and/or DNA repair complexes. Cytostatic and cytotoxic effects were examined by calculating the nuclear division index (NDI) and nuclear division cytotoxicity index (NDCI) based on the proportion of mono-, bi-, and multinucleated cells and necrotic and/or apoptotic cell ratios, respectively.
Whole blood, 400 µL per each treatment, was cultured in PB-MAX™ Karyotyping Medium for 72 h at 37 ^∘C. […] Untreated cultures were set up as negative controls. Cytochalasin B was added to the final concentration of 4.5 µg/mL to block cytokinesis.
After the cultivation period, cultures were centrifuged for 10 min at 1000 rpm (188 × g) and subjected to hypotonic treatment with 0.56% KCl and centrifuged immediately after the hypotonic addition. Hypotonic treatment was followed by three fixations in ice-cold glacial acetic acid + ethanol (1:3) fresh fixative. The fixed lymphocyte solution was dropped on coded microscope slides. Air-dried slides were stained in 5% Giemsa for 7 min. […] Frequencies of mononuclear, binuclear, trinuclear, and quadrinuclear cells, as well as apoptotic and necrotic cells, were scored in a total number of at least 500 cells. All genotoxicity and cytotoxicity parameters were recognized according to the criteria given by Fenech.

[2] = MTT assay, cell viability; settings: male, human, peripheral blood mononuclear cells (PBMCs)
Experimental: (§1) Blood was collected by venipuncture into heparinized vacutainers (BD Vacutainer Systems, Plymouth, UK), stored at room temperature, protected from light, and processed within 2 h. PBMCs were isolated by density gradient centrifugation (400 × g, 30 min) with separation medium (Histopaque® - 1077). After isolation, PBMCs were stained with Trypan blue and counted using a hemocytometer.
(§2) The MTT assay is regarded as a sensitive and reliable colorimetric assay to quantify cellular viability, proliferation, and activation. It is based on the ability of mitochondrial nicotinamide adenine dinucleotide phosphate (NADPH)-dependent cellular oxidoreductase enzymes present in viable cells to reduce soluble tetrazolium salt (3-[4,5-dimethylthiazol-2-yl]-2,5 diphenyl tetrazolium bromide) to insoluble, colored formazan compounds [26].
(§3) The MTT assay was conducted in triplicate in the 96-well plate, with two technical replicates. The seeding density was 6.25 × 10^3 cells per well.
(§4) After 72 h of incubation, the reagent MTT was added to samples for 3 h at 37 ^∘C. DMSO was added to solubilize the formazan crystals followed by further incubation for 30 and 60 min at 37 ^∘C. The optical density was measured at 570 nm using the multiplate reader Multi-Scan FC (Thermo Fisher Scientific, USA). The cell viability was determined according to (5): (5) [drawing 5]

PBMCs [3] = test: Alkaline comet assay, tail intensity; format: cell-based, human; settings: 3 h
Experimental: as §1
The comet assay is a sensitive technique for measuring DNA damage at the level of the individual eukaryotic cell. It is based upon the fact that denatured cleaved DNA fragments, or damaged DNA, migrate out of the cell at a different rate during electrophoresis than undamaged DNA [32]. Damaged DNA creates a “comet tail,” while the undamaged DNA remains within the cell membrane creating the “comet head.” The Comet assay is most commonly run under alkaline conditions to detect single and double-stranded DNA breaks.
PBMCs were isolated as previously described and then cultivated in PB-MAX™ Karyotyping Medium and incubated for 24 h at 37 ^∘C. […] Positive and negative controls were also set up equally. Treated cells were incubated at 37 ^∘C for 3 h and then centrifuged at 800 rpm (120 × g) for 5 min. The supernatant was removed and the cells were subsequently resuspended.
In a tube containing 120 µL of 0.7% LMPA, 80 µL of the sample was added for each tested concentration and controls. Prepared samples were applied to slides precoated with a 1% NMPA and covered with coverslips. After gel polymerization, coverslips were removed and slides were immersed in lysis buffer overnight at 4 ^∘C. Afterward, slides were washed with distilled water and placed into the electrophoresis tank with an electrophoresis solution (200 mM Na2EDTA, 10 M NaOH, and distilled water, pH > 13) for 20 min, followed by 20 min of electrophoresis (1 V/cm). After electrophoresis, slides were gently rinsed in the following sequences: phosphate-buffered saline (PBS) for 5 min, 70% (V/V) ethanol for 5 min, and finally 96% (V/V) ethanol for 15 min.
Prior to the fluorescent microscope analysis (U-MNU2; Olympus BX51, Tokyo, Japan), slides were rehydrated and stained with DAPI (1 µg/mL). DNA damage in treated cells was evaluated using Comet Assay IV software (Instem LSS Ltd., Staffordshire, UK), by measuring tail intensity (TI%), the percent of DNA in the tail of comets. For each concentration, as well as for positive and negative controls, at least 200 comets were analyzed. The Minimum Information for Reporting Comet Assay (MIRCA) protocol was used to report the results.

[4] = β-CD […] (w/w), 25 mg DMH/mL of water
Experimental: Phase solubility studies were performed according to the Higuchi and Connors’ method [21]. […] Sample solutions were prepared as described by Hindija et al. [22]. […] Each measurement was run in triplicate.
Phase solubility studies, where the change of drug solubility corresponds to CD concentration, were conducted to assess the binding characteristics of the drug and CD and to determine the values of stability constant (Ks), complexation efficacy (CE), and utility number (UCD).
The utility number (UCD) is expressed as: (4) [drawing 4] where mD and mCD are the drug dose and workable amount of CD in mg, respectively, while MWD and MWCD stand for molecular weights of D and CD [22].

human PBMCs = test: MTT assay, cell viability; settings: human PBMCs, 72 h, 36.36–109.09 ng/mL
Experimental: as §1, §2, §3, §4

HEK293 cells = system: HEK293 cells; parameters: method as in earlier work; settings: cited from earlier work
Calu-3 cells = system: Calu-3 cells; parameters: method as in PMID 18160169; settings: cited from earlier work
[5] = system: endothelial (HUVEC) cells; settings: cited from earlier work
HCT-116 cancer cells = settings: cited from earlier work
mouse retinal cells = system: mouse retinal cells; parameters: method as in PMID 33803405; settings: cited from earlier work
LO2 cells = system: LO2 cells; parameters: method as in PMID 26256188; settings: cited from earlier work
MDA-MB-231 cancer cells = settings: cited from earlier work
HeLa cells = system: HeLa cells; parameters: method as in PMID 19616959; settings: cited from earlier work

O=c1[nH]cc(F)c(=O)[nH]1 [5-FU, 5-fluorouracil]
BN cells with MNi (mean ± SD) (PBMCs [1]; positive control): 19 ± 6.56 | NBUDs (mean ± SD) (PBMCs [1]; positive control): 3.5 ± 1.92 | NDCI, nuclear division cytotoxicity index (mean ± SD) (PBMCs [1]; positive control): 1.577 ± 0.01 | NDI, nuclear division index (mean ± SD) (PBMCs [1]; positive control): 1.612 ± 0.01 | NPBs (mean ± SD) (PBMCs [1]; positive control): 1 ± 0.82 | Total MNi (mean ± SD) (PBMCs [1]; positive control): 19.25 ± 6.65 | viability at 72 h, 100 µg/mL [2]: 64.8% | Genotoxic effects in alkaline comet assay (PBMCs [3]): genotoxic effects were observed | Tail intensity (mean ± SD) (PBMCs [3]; 5-FU 100 µg/mL): 5.93 ± 0.23%

CN(C)CCOC(c1ccccc1)c1ccccc1.Cn1c(=O)c2[nH]c(Cl)nc2n(C)c1=O [DMH, 2-benzhydryloxy-N,N-dimethylethanamine; 8-chloro-1,3-dimethyl-7H-purine-2,6-dione]
UCD, utility number [4]: 1.156 | NBUDs (mean ± SD) (PBMCs [1]; DMH 72.73 ng/mL): 0.75 ± 0.96^s | NPBs (mean ± SD) (PBMCs [1]; DMH 72.73 ng/mL): 0.25 ± 0.5 | Total MNi (mean ± SD) (PBMCs [1]; DMH 72.73 ng/mL, BN cells): 4.25 ± 0.96^r, s | NBUDs (mean ± SD) (PBMCs [1]; DMH 90.91 ng/mL): 1.75 ± 1.26^s | NPBs (mean ± SD) (PBMCs [1]; DMH 90.91 ng/mL): 0.25 ± 0.5 | Total MNi (mean ± SD) (PBMCs [1]; DMH 90.91 ng/mL, BN cells): 6.5 ± 1.92^s | NBUDs (mean ± SD) (PBMCs [1]; DMH 109.09 ng/mL): 1 ± 0.82^s | NPBs (mean ± SD) (PBMCs [1]; DMH 109.09 ng/mL): 0.25 ± 0.5 | Total MNi (mean ± SD) (PBMCs [1]; DMH 109.09 ng/mL, BN cells): 6.5 ± 2.38^s | Difference in cell viability versus negative control (Tukey–Kramer) (human PBMCs): no statistically significant differences | Effect on cell viability (HEK293 cells): may slightly affect the viability

OC[C@H]1O[C@@H]2O[C@H]3[C@H](O)[C@@H](O)[C@@H](O[C@H]4[C@H](O)[C@@H](O)[C@@H](O[C@H]5[C@H](O)[C@@H](O)[C@@H](O[C@H]6[C@H](O)[C@@H](O)[C@@H](O[C@H]7[C@H](O)[C@@H](O)[C@@H](O[C@H]8[C@H](O)[C@@H](O)[C@@H](O[C@H]1[C@H](O)[C@H]2O)O[C@@H]8CO)O[C@@H]7CO)O[C@@H]6CO)O[C@@H]5CO)O[C@@H]4CO)O[C@@H]3CO [β-CD, β-cyclodextrin]
Effect on cell viability (Calu-3 cells): does not affect cell viability | Effect on cell viability [5]: does not affect cell viability | Effect on cell viability (HCT-116 cancer cells): does not affect cell viability | Effect on cell viability (mouse retinal cells): does not affect cell viability | Effect on cell viability (LO2 cells): does not affect cell viability | Effect on cell viability (MDA-MB-231 cancer cells): does not affect cell viability | viability at 72 h, 1000 ng/mL [2]: 90.3% | Effect on cell viability (HeLa cells): does not affect cell viability | Tail intensity (mean ± SD) (PBMCs [3]; concentration of β-CD 250 ng/mL): 3.02 ± 1.45% | Tail intensity (mean ± SD) (PBMCs [3]; concentration of β-CD 500 ng/mL): 3.22 ± 1.09% | Tail intensity (mean ± SD) (PBMCs [3]; concentration of β-CD 750 ng/mL): 3.25 ± 1.02% | Tail intensity (mean ± SD) (PBMCs [3]; concentration of β-CD 1000 ng/mL): 3.42 ± 1.08%
